In test [1] the test system is WT ERK2. Particulars: selective conditions (-His); hits Z > 3; average of three screens; cited from earlier work. An excerpt:
Supplement mmc2.xlsx, sheet "WT Hits" | column: Z-score

Test [2] concerns ERK2 D319N. Nature of the test: Y2H D-site library screen, ERK2 D319N. Also noted: key to ES, +His / ES, -His: ES = slope of ln(Ft/F0) vs number of yeast population doublings. It is filed as cell-based, rat. An excerpt:
(§1) To examine how cancer-associated CD site mutations affect the scope of ERK2 docking interactions, we adopted a Y2H strategy that we previously applied to define the D-site interactome of WT ERK2 ([15]). This system reports on interactions between ERK2 and a fragment of its substrate ELK1 that harbors a docking site essential for binding (Fig. 1C). The system thus evaluates the binding of potential sequences by substituting them for the native ELK1 docking site. We transformed Y2H strains with a bait plasmid expressing the Gal4 DNA-binding domain (DBD) fused to WT or CD mutant forms of rat ERK2 (R133K, D319N or E320K, equivalent respectively to human R135K, D321N and E322K), along with a prey plasmid expressing Gal4 activation domain (AD) fused to the ELK1 fragment harboring various docking site sequences. We then assayed these strains for growth on solid media under non-selective (+His) and selective conditions (−His) to detect interactions (Fig. 1D).
(§2) We previously used the Y2H system to screen WT ERK2 against a pooled library of 11,756 ELK1 variants incorporating potential docking sites from the human proteome ([15]). To identify interacting sequences either gained or lost upon ERK2 CD site mutation, we screened the same library against ERK2^D319N and ERK2^E320K. Yeast expressing ERK2 mutant bait plasmids were transformed with the ELK1 library pool and subjected to competitive growth under selective (−His) and non-selective conditions (+His) in parallel. Cultures were sampled periodically over ∼7 population doublings. The DNA sequence encoding the variable docking site region was PCR amplified and analyzed by next-generation sequencing (Fig. 2A, Dataset S1). The change in sequence abundance over time was fitted to an exponential function to assign an enrichment score (ES) to each docking site, where a higher ES indicates a greater increase in sequence abundance as the population grows. A significant enrichment of docking site sequences was observed only under selective conditions (Figs. 2B, S1). For each mutant, we observed generally good reproducibility across three independently conducted screens albeit with some sequences enriched in only a single replicate (Fig. S2, A and B). Average ES scores for the E320K and D319N mutant screens were better correlated with each other (R = 0.83) than were average ES scores for either mutant compared to WT ERK2 (R = 0.67 for WT versus D319N, R = 0.63 for WT versus E320K) (Fig. S2C).
(§3) To compare sequences selected by CD mutants with those selected by WT ERK2, we defined those sequences with an ES equal to or higher than three standard deviations from the mean (Z > 3) as hits. Using this cutoff, we obtained 121, 127, and 153 hits sequences from the WT, D319N, and E320K screens, respectively (Fig. 2C, Dataset S2).
(§4) Yeast harboring pGBT9-ERK2^E320K or pGBT9-ERK2^D319N were transformed with the pGADGH-ELK1 D-site library plasmid pool. Transformants (10–40 colonies per library component) were suspended in SD-Leu-Trp media, diluted to an OD600 of 0.1, and cultured in a shaking incubator at 30 °C to an OD600 of 1.0. The resulting culture was used to initiate a competitive selection screen. Cell growth, sample collection and data analysis were performed exactly as described previously for WT ERK2 ([15]). The frequency (F) of each D-site sequence at a given time point (t) was calculated by dividing the number of reads by the total read count for all sequences. For each sequence, a plot of ln(Ft/F0) as a function of the number of yeast population doublings was fit to a line, and the enrichment score (ES) for that sequence was defined as the slope of this line. Illumina sequencing reads, calculated ES, and Z scores for each screen are provided in Dataset S1.

Test [3] deals with ERK2 E320K. In words: Y2H D-site library screen, ERK2 E320K. It is filed as cell-based, rat. Details: key to ES, +His / ES, -His: ES = slope of ln(Ft/F0) vs number of yeast population doublings.
Text: as §1, §2, §3, §4

Setting [4] is: Average of 3 Replicate Screens, non-selective.
Where [5] appears, read: Average of 3 Replicate Screens, selective.
[6] abbreviates: Average of 3 Replicate Experiments, non-selective.
The mark [7] stands for this setting: Average of 3 Replicate Experiments, selective.

“RRRGTRPPLLALLA [ROR1, D-site 14-mer in ELK1 Y2H prey]”: in test [1], the “Z-score (ES) of hit sequences, WT ERK2 Y2H screen” value (from here on “Z-score (ES) of hit sequences”) is reported as 4.89.

Turning to “PKRKEPGRSLRIKV [DNAJC27, D-site 14-mer in ELK1 Y2H prey]”, in test [1], the “Z-score (ES) of hit sequences” value was 6.00.

Regarding “PWRTTKPQPLVLSQ [PROX2, D-site 14-mer in ELK1 Y2H prey]”, the “Z-score (ES) of hit sequences” value in test [1] is on record as 3.19.

As to “SGMRARRGLLRLPR [B4GALT5, D-site 14-mer in ELK1 Y2H prey]”, the “Z-score (ES) of hit sequences” value in test [1] was 5.95.

For the sequence “ITKAIRDRLLFLRQ [NBAS, D-site 14-mer in ELK1 Y2H prey]”, the “Z-score (ES) of hit sequences” value in test [1] is 3.64.

On to “CKLKMKPRPIAILQ [TTN, D-site 14-mer in ELK1 Y2H prey]”, for which the “Z-score (ES) of hit sequences” value in test [1] was 7.96.

On to “RKKKLTMRPLVLQK [MAP3K19, D-site 14-mer in ELK1 Y2H prey]”, for which the “Z-score (ES) of hit sequences” value in test [1] is recorded as 3.59.

On to “RKEVKRKKVVHMNK [RNF151, D-site 14-mer in ELK1 Y2H prey]”, for which, in test [1], the “Z-score (ES) of hit sequences” value is reported as 6.59.

For the sequence “SKGKKRNPGLKIPK [MAP2K6, D-site 14-mer in ELK1 Y2H prey]”, in test [1], the “Z-score (ES) of hit sequences” value was 8.58.

For the sequence “TYRPKRPTTLNLFP [MAPK8IP1, D-site 14-mer in ELK1 Y2H prey]”, the “Z-score (ES) of hit sequences” value in test [1] is listed as 3.22.

In the case of “PTKTKPKKLLFLGS [SMG1, D-site 14-mer in ELK1 Y2H prey]”, in test [1], the “Z-score (ES) of hit sequences” value is given as 3.46.

“YKMKFFTKCVAFSK [LRP2BP, D-site 14-mer in ELK1 Y2H prey]”: the “Z-score (ES) of hit sequences” value in test [1] is listed as 3.15.

“LRVRKARPQLILSR [NOL9, D-site 14-mer in ELK1 Y2H prey]”: the “Z-score (ES) of hit sequences” value in test [1] is given as 4.35.

With “QLPPRKLPTLKLTP [MTX3, D-site 14-mer in ELK1 Y2H prey]”, the “Z-score (ES) of hit sequences” value in test [1] is reported as 3.25.

For the sequence “RKTKKKKSHLSLVG [ATXN7L3, D-site 14-mer in ELK1 Y2H prey]”, the “Z-score (ES) of hit sequences” value in test [1] was 3.39.

With “SLKKKIQPKLSLTL [JAZF1, D-site 14-mer in ELK1 Y2H prey]”, the “Z-score (ES) of hit sequences” value in test [1] is listed as 5.24.

“RSVRKRSPWLQLPG [FCRLB, D-site 14-mer in ELK1 Y2H prey]”: in test [1], the “Z-score (ES) of hit sequences” value is recorded as 3.88.

As for “VVALRKKQQLAIGP [AGAP3, D-site 14-mer in ELK1 Y2H prey]”, in test [1], the “Z-score (ES) of hit sequences” value is on record as 6.33.

“LRKKPDLSPLKLTI [TTC41P, D-site 14-mer in ELK1 Y2H prey]”: in test [1], the “Z-score (ES) of hit sequences” value is 5.81.

For the sequence “KKTRKLKIALALSD [PLCZ1, D-site 14-mer in ELK1 Y2H prey]”, in test [1], the “Z-score (ES) of hit sequences” value is 3.78.

Take “KRSKKNSLALSLTA [ESR1, D-site 14-mer in ELK1 Y2H prey]”: the “Z-score (ES) of hit sequences” value in test [1] is given as 5.11.

In the case of “SPKWKNFKGLKLQW [MLXIP, D-site 14-mer in ELK1 Y2H prey]”, the “Z-score (ES) of hit sequences” value in test [1] is reported as 8.72.

Consider “SRKQRQPARLQLPA [ZBTB45, D-site 14-mer in ELK1 Y2H prey]”, for which the “Z-score (ES) of hit sequences” value in test [1] is listed as 3.70.

For “GTRQVKNKGVIVKK [MEIKIN, D-site 14-mer in ELK1 Y2H prey]”, the “ES, +His” value in test [2] (setting [4]) is on record as -0.02174; in test [2] (Experiment 1, non-selective), -0.02593; in test [2] (Experiment 2, non-selective), -0.03529; in test [2] (Experiment 3, non-selective) it was -0.004005; in test [3] (setting [6]) it was -0.01644; in test [3] (Experiment 1, non-selective), 0.02832. The “ES, +His” value is given as -0.03889 in test [3] (Experiment 2, non-selective) and -0.03876 in test [3] (Experiment 3, non-selective). Further, the entries for the “Z-Score, +His” value in test [2] (setting [4]) and in test [3] (setting [6]) were -0.8853 and -0.6905, respectively. The “ES, -His” value in test [2] (setting [5]) is listed as -0.1312; in test [2] (Experiment 1, selective), -0.1282; in test [2] (Experiment 2, selective) it was -0.1336; in test [2] (Experiment 3, selective), -0.1318; in test [3] (setting [7]), -0.1045; in test [3] (Experiment 1, selective), -0.1559. Further, the “ES, -His” value is listed as -0.03551 in test [3] (Experiment 2, selective) and -0.1222 in test [3] (Experiment 3, selective). In addition, the “Z-Score, -His” value in test [2] (setting [5]) is given as -0.1438; in test [3] (setting [7]) it was 0.2622.

For the sequence “PDGKKRRKVLALPS [RBM28, D-site 14-mer in ELK1 Y2H prey]”, the “Z-score (ES) of hit sequences” value in test [1] is recorded as 5.03.

Consider “PKGKNRPSSLNLDP [ARHGAP31, D-site 14-mer in ELK1 Y2H prey]”, for which the “Z-score (ES) of hit sequences” value in test [1] is reported as 3.62.

In the case of “LRPLRPKPPLLLPK [RREB1, D-site 14-mer in ELK1 Y2H prey]”, the “Z-score (ES) of hit sequences” value in test [1] is listed as 9.18.

Take “KKRKKKRLVINLSS [TTLL6, D-site 14-mer in ELK1 Y2H prey]”: in test [1], the “Z-score (ES) of hit sequences” value is reported as 10.00.

Turning to “NKSLKNQHGLTLQL [ZNF534, D-site 14-mer in ELK1 Y2H prey]”, in test [1], the “Z-score (ES) of hit sequences” value is 12.39.

With “RRQHRPPALLTLYP [DOCK6, D-site 14-mer in ELK1 Y2H prey]”, the “Z-score (ES) of hit sequences” value in test [1] was 3.71.

Regarding “KLDKSPFVVVSVVG [TTC28, D-site 14-mer in ELK1 Y2H prey]”, in test [1], the “Z-score (ES) of hit sequences” value was 3.83.

In the case of “ALLRKINQVLLFLL [GLT8D2, D-site 14-mer in ELK1 Y2H prey]”, the “Z-score (ES) of hit sequences” value in test [1] is 5.93.

For the sequence “EERKTKRPSLRLFG [PPARGC1A, D-site 14-mer in ELK1 Y2H prey]”, the “Z-score (ES) of hit sequences” value in test [1] was 4.99.

In the case of “RLQSRKPPNLSITI [RHBDF2, D-site 14-mer in ELK1 Y2H prey]”, in test [1], the “Z-score (ES) of hit sequences” value is reported as 20.42.

On to “PMKQKRKLRLYISN [SMARCD3, D-site 14-mer in ELK1 Y2H prey]”, for which, in test [1], the “Z-score (ES) of hit sequences” value is 6.57.

In the case of “TRQKHAKKHLGFFR [UTP23, D-site 14-mer in ELK1 Y2H prey]”, the “Z-score (ES) of hit sequences” value in test [1] is 3.13.

Turning to “EKIKVKSTEVEILE [MUM1, D-site 14-mer in ELK1 Y2H prey]”, the “Z-score (ES) of hit sequences” value in test [1] was 3.47.

On to “KKFRHRPEPLFIPP [TRERF1, D-site 14-mer in ELK1 Y2H prey]”, for which the “Z-score (ES) of hit sequences” value in test [1] was 19.05.

For “RKRSKPKLKLKIIN [KMT2C, D-site 14-mer in ELK1 Y2H prey]”, the “Z-score (ES) of hit sequences” value in test [1] is on record as 17.15.

Turning to “ITSKQRPRKLTLMG [MTOR, D-site 14-mer in ELK1 Y2H prey]”, the “Z-score (ES) of hit sequences” value in test [1] is listed as 4.58.

With “PPVKKKPKLLNLKD [SIN3A, D-site 14-mer in ELK1 Y2H prey]”, the “Z-score (ES) of hit sequences” value in test [1] is 4.29.

As to “FTLKAKRPGLRLPD [FLRT1, D-site 14-mer in ELK1 Y2H prey]”, the “Z-score (ES) of hit sequences” value in test [1] is recorded as 4.42.

Source of the values: publication PMC11982978, “Cancer hotspot mutations rewire ERK2 specificity by selective exclusion of docking interactions” (The Journal of Biological Chemistry, 2025).
